Results: patent US8053474B2, “Compound with carboxyl acid group and amide group and application thereof” (Corum Inc., priority 2009, dated 2011)

Legend:
Mushroom Tyrosinase [1] = assay: Mushroom Tyrosinase Inhibition Test (Dopa base); assay type: biochemical; details: Dopa base (L-Dopa 1 mg/mL, pH 6.5); sample solution 2% in water, 100 μL in 900 μL substrate; 3 min, 475 nm
Procedure: Mushroom Tyrosinase Inhibition Test (Dopa Base):
Preparation: L-Dopa (L-3,4-dihydroxyphenylalanine; 1 mg/mL) was dissolved in pH 6.5 buffer solution. Samples were dissolved in water and prepared the concentration at 2%.
Method: 900 μL of L-Dopa solution was added into 100 μL of sample solution (or blank solution) and measured by thermo spectronic 475 nm (Aso or Ab0). 15 μL of mushroom […] buffer solution was added into mixture. After reaction for 3 min, mixture was measured by thermo spectronic (As3 or Ab3) (FIG. 1).

Mushroom Tyrosinase [2] = assay: Mushroom Tyrosinase Inhibition Test (Tyrosine base); assay type: biochemical; details: Tyrosine base (Tyrosine 5 mg/mL, pH 6.5); sample solution 2% in water, 100 μL in 900 μL substrate; 60 minutes, 492 nm
Procedure: Mushroom Tyrosinase Inhibition Test (Tyrosine Base): Preparation: Tyrosine (5 mg/mL) were dissolved in pH 6.5 buffer solution. Samples were dissolved in water and prepared the concentration at 2%. Method: 900 μL of Tyrosine solution was added into 100 μL of sample solution (or blank solution) and measured by thermo spectronic 492 nm (Aso or Ab0). 40 μL of mushroom tyrosinase buffer solution was added into mixture. After reaction for 60 minutes, the mixture was measured by thermo spectronic (As60 or Ab60) (FIG. 2). Calculation: [formula]

Water Solubility = assay type: physicochemical; details: in water

| Mushroom Tyrosinase Inhibition (Mushroom Tyrosinase [1]) [%] | Mushroom Tyrosinase Inhibition (Mushroom Tyrosinase [2]) [%] | Water Solubility (Water Solubility) [%] | SMILES |
| --- | --- | --- | --- |
| 56.3 | 78.4 | 33 | CN(C)CCCNC(=O)CCCCCCCC(=O)O [(III), 8-(3-Dimethylamino-propylcarbamoyl)-octanoic acid] |
| 60.0 | 99.3 | 29 | CN(C)CCCNC(=O)CCCCCCCCC(=O)O [(V), 9-(3-Dimethylamino-propylcarbamoyl) nonanoic acid] |
| 45.7 | 77.2 | 22 | CC(C)N(CCNC(=O)CCCCCCCC(=O)O)C(C)C [(II), 8-(2-Diisopropylamino-ethylcarbamoyl)-octanoic acid] |
| 74.3 | 82.9 | – | CN(C)CCNC(=O)CCCCCCCC(=O)O [(I), 8-(2-Dimethylamino-ethylcarbamoyl)-octanoic acid] |
| 50.6 | 84.1 | 17 | CN(C)CCNC(=O)CCCCCCCCC(=O)O [(IV), 9-(2-Dimethylamino-ethylcarbamoyl)-nonanoic acid] |
| – | – | <0.5 | O=C(O)CCCCCCCC(=O)O [Azelaic acid, reference compound] |
